Source: patent publication US11905281B2 (Amgen Inc., priority 2017, dated 2024)

tested on: Phosphorylation of ERK1/2 in MIA PaCa-2 cells; test: Phospho-ERK1/2 MSD Assay, MIA PaCa-2 (Table 16 conditions: 2 hours compound treatment); assay type: cell-based; conditions: MIA PaCa-2 cells, 10 ng/mL EGF for 10 min, read-out: p-ERK IC50 (MIA PaCa-2)
Procedure: (§1) For compounds in Table 16, the following assay conditions were employed:
Sixteen hours prior to compound treatment, MIA PaCa-2 or A549 cells were seeded in 96-well cell culture plates at a density of 25,000 cells/well and incubated at 37° C., 5% CO2. A compound dose-response titration was diluted in growth media, added to appropriate wells of a cell culture plate, and then incubated at 37° C., 5% CO2 for 2 hours. […] Phosphorylation of ERK1/2 in compound-treated lysates was assayed using Phospho-ERK1/2 Whole Cell Lysate kits (Meso Scale Discovery K151DWD) according to the manufacturer's protocol. Assay plates were read on a Meso Scale Discovery Sector Imager 6000, and data were analyzed using a 4-parameter logistic model to calculate IC50 values.

| IC50 | SMILES |
| --- | --- |
| 49 nM | C=CC(=O)N1CCN(c2nc(=O)n(-c3c(C)ccnc3C3CC3)c3nc(-c4ccccc4F)c(Cl)cc23)[C@@H](C)C1 (single isomer, unassigned) [Example 45-1] |
| 85 nM | C=CC(=O)N1CCN(c2nc(=O)n(-c3c(C)ccnc3C(C)C)c3nc(-c4c(O)cccc4F)c(F)cc23)[C@@H](C)C1 [Example 41, 6-Fluoro-7-(2-fluoro-6-hydroxyphenyl)-1-(4-methyl-2-(2-propanyl)-3-pyridinyl)-4-((2S)-2-methyl-4-(2-propenoyl)-1-piperazinyl)pyrido[2,3-d]pyrimidin-2(1H)-one] |
| 72 nM | C=CC(=O)N1CCN(c2nc(=O)n(-c3c(C)ccnc3C(C)C)c3nc(-c4c(O)cccc4F)c(F)cc23)[C@@H](C)C1 [Example 41-1, 6-fluoro-7-(2-fluoro-6-hydroxyphenyl)-1-(4-methyl-2-(2-propanyl)-3-pyridinyl)-4-((2S)-2-methyl-4-(2-propenoyl)-1-piperazinyl)pyrido-[2,3-d]pyrimidin-2(1H)-one] |
| 1660 nM | C=CC(=O)N1CCN(c2nc(=O)n(-c3c(C)ccnc3C(C)C)c3nc(-c4c(O)cccc4F)c(F)cc23)[C@@H](C)C1 [Example 41-2, 6-fluoro-7-(2-fluoro-6-hydroxyphenyl)-1-(4-methyl-2-(2-propanyl)-3-pyridinyl)-4-((2S)-2-methyl-4-(2-propenoyl)-1-piperazinyl)pyrido-[2,3-d]pyrimidin-2(1H)-one] |

biological target: GDP-bound KRAS protein (aa 1-169), containing both G12C and C118A amino acid substitutions (Homo sapiens, UniProt P01116, C118A/G12C); test: Coupled Nucleotide Exchange Assay (Table 16 conditions: 5 min pre-incubation); assay type: biochemical; conditions: 5 min compound pre-incubation; SOS-mediated nucleotide exchange, AlphaScreen
Procedure: as §1
The assay plates were then read on a PerkinElmer EnVision Multilabel Reader, using AlphaScreen® technology, and data were analyzed using a 4-parameter logistic model to calculate IC50 values.

GDP-bound KRAS protein (aa 1-169), containing both G12C and C118A amino acid substitutions, sequence (P01116 1-169 isoform P01116-2 G12C/C118A): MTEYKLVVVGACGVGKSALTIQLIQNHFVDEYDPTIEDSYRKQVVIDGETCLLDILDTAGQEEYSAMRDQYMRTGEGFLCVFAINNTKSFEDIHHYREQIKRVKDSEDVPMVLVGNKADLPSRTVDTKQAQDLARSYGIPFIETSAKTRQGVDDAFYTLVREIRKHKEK

| SMILES | IC50 |
| --- | --- |
| C=CC(=O)N1CCN(c2nc(=O)n(-c3c(C)ccnc3C3CC3)c3nc(-c4ccccc4F)c(Cl)cc23)[C@@H](C)C1 (single isomer, unassigned) [Example 45-1] | 89 nM |
| C=CC(=O)N1CCN(c2nc(=O)n(-c3ccccc3C(C)(C)C)c3nc(-c4c(O)cccc4F)c(Cl)cc23)[C@@H](C)C1 (single isomer, unassigned) [Example 49-1] | 2580 nM |
| C=CC(=O)N1CCN(c2nc(=O)n(-c3ccccc3C(C)C)c3nc(-c4c(O)cccc4F)c(C)cc23)[C@@H](C)C1 (single isomer, unassigned) [Example 52-1] | 5990 nM |
| C=CC(=O)N1CCN(c2nc(=O)n(-c3ccccc3C(C)C)c3nc(-c4c(O)cccc4F)c(C)cc23)[C@@H](C)C1 (single isomer, unassigned) [Example 52-2] | 146 nM |
| C=CC(=O)N1CCN(c2nc(=O)n(-c3c(C)ccnc3C3CC3)c3nc(-c4c(O)cccc4F)c(F)cc23)[C@@H](C)C1 [Example 42-2, 1-(2-cyclopropyl-4-methyl-3-pyridinyl)-6-fluoro-7-(2-fluoro-6-hydroxyphenyl)-4-((2S)-2-methyl-4-(2-propenoyl)-1-piperazinyl)pyrido-[2,3-d]pyrimidin-2(1H)-one] | 1560 nM |
| C=CC(=O)N1CCN(c2nc(=O)n(-c3ccccc3C(C)C)c3nc(-c4c(O)cccc4F)c(C)cc23)[C@@H](C)C1 [Example 52, 7-(2-fluoro-6-hydroxyphenyl)-6-methyl-4-((2S)-2-methyl-4-(2-propenoyl)-1-piperazinyl)-1-(2-(2-propanyl)phenyl)pyrido[2,3-d]pyrimidin-2(1H)-one] | 338 nM |

Continued, values first:

| IC50 | SMILES |
| --- | --- |
| 117 nM | C=CC(=O)N1CCN(c2nc(=O)n(-c3ccccc3C(C)C)c3nc(-c4ccccc4F)c(Cl)nc23)[C@@H](C)C1 (single isomer, unassigned) [Example 50-1] |
| 3690 nM | C=CC(=O)N1CCN(c2nc(=O)n(-c3ccccc3C(C)C)c3nc(-c4ccccc4F)c(Cl)nc23)[C@@H](C)C1 (single isomer, unassigned) [Example 50-2] |
| 11200 nM | C=CC(=O)N1CCN(c2nc(=O)n(-c3ccccc3C(C)C)c3nc(-c4ccccc4F)c(C)nc23)[C@@H](C)C1 (single isomer, unassigned) [Example 51-1] |
| 221 nM | C=CC(=O)N1CCN(c2nc(=O)n(-c3ccccc3C(C)C)c3nc(-c4ccccc4F)c(C)nc23)[C@@H](C)C1 (single isomer, unassigned) [Example 51-2] |
| 276 nM | C=CC(=O)N1CCN(c2nc(=O)n(-c3ccccc3C(C)C)c3nc(-c4ccccc4F)c(Cl)nc23)[C@@H](C)C1 [Example 50, 6-Chloro-7-(2-fluorophenyl)-4-((2S)-2-methyl-4-(2-propenoyl)-1-piperazinyl)-1-(2-(2-propanyl)phenyl)-2(1H)-pteridinone] |
